According to US10537104B2, “Insecticide mixtures comprising loline alkaloids” (SYNGENTA PARTICIPATIONS AG, priority 2016, dated 2020):

Tests used:
Myzus persicae = assay: Tests against Myzus persicae: sprayed sunflower leaf discs, mortality; assay type: in vivo; details: 6 days after infestation
Excerpt: (§1) A synergistic effect exists whenever the action of an active ingredient combination is greater than the sum of the actions of the individual components. The action to be expected E for a given active ingredient combination obeys the so-called COLBY formula and can be calculated as follows (COLBY, S. R. “Calculating synergistic and antagonistic responses of herbicide combination”. Weeds, Vol. 15, pages 20-22 1967):
(§2) According to Colby, the expected (additive) action of active ingredients A+B using p+q ppm of active ingredient is
(§3) If the action actually observed O is greater than the expected action E, then the action of the combination is super-additive, i.e. there is a synergistic effect. In mathematical terms, synergism corresponds to a positive value for the difference of (O-E). In the case of purely complementary addition of activities (expected activity), said difference (O-E) is zero. A negative value of said difference (O-E) signals a loss of activity compared to the expected activity.
Component (A1) is a mixture of NAL, NFL and NANL in a weight ratio of about approximately 1:4:2. Stock solutions of thiamethoxam and flonicamid were prepared respectively by dissolving the technical active ingredient in DMSO. The aqueous test solutions were prepared by mixing together the appropriate stock solutions to the desired concentrations.
Tests Against Myzus persicae
Sunflower leaf discs were placed on agar in a 24-well microtiter plate and sprayed with aqueous test solutions prepared from DMSO stock solutions. After drying, the leaf discs were infested with an aphid population of mixed ages. The samples were assessed for mortality 6 days after infestation.

Thrips tabaci = assay: Tests against Thrips tabaci: sprayed sunflower leaf discs, mortality; assay type: in vivo; details: 6 days after infestation
Excerpt: as §1, §2, §3
Component (A1) is a mixture of NAL, NFL and NANL in a weight ratio of about approximately 1:4:2. […]
Sunflower leaf discs were placed on agar in 24-well microtiter plates and sprayed with aqueous test solutions prepared from DMSO stock solutions. […] The samples were assessed for mortality 6 days after infestation.

SMILES	% Mortality Measured (Myzus persicae; flonicamid 3.125 ppm alone)	% Mortality Measured (Myzus persicae; flonicamid 6.25 ppm alone)	% Mortality Measured (Myzus persicae; flonicamid 12.5 ppm alone)	% Mortality Measured (Thrips tabaci; flonicamid 100 ppm alone)	% Mortality Measured (Thrips tabaci; flonicamid 200 ppm alone)	mortality at 0.4 ppm (Myzus persicae; Myzus persicae, foliar, 144 h, thiamethoxam 0.4 ppm alone, read-out: % Mortality Measured)	mortality at 0.8 ppm (Myzus persicae; Myzus persicae, foliar, 144 h, thiamethoxam 0.8 ppm alone, read-out: % Mortality Measured)	mortality at 1.6 ppm (Myzus persicae; Myzus persicae, foliar, 144 h, thiamethoxam 1.6 ppm alone, read-out: % Mortality Measured)
N#CCNC(=O)c1cnccc1C(F)(F)F [Flonicamid, flonicamid]	0%	65%	90%	0%	0%			
CN1COCN(Cc2cnc(Cl)s2)/C1=N\[N+](=O)[O-] [Thiamethoxam, thiamethoxam]						0%	0%	45%
